{"source": "paper PMC8776894", "about": "(Communications Biology, 2022)", "key": {"[1]": {"system": "PI3K (p85α), AKT, IκBα, NF-κB, p38, ERK1/2 phosphorylation", "assay": "Quantitative immunoblotting of brain", "assay_type": "in vivo, mouse", "settings": "MCAO/R mice, Western blot", "method": "Quantitative immunoblotting was accomplished as previously described. Anti-β-actin (Themo) was used as an internal loading control. Imaging of blots was performed using an AzureC300 with secondary antibodies(Themo). Analysis was carried out in Image Lab and signal intensities were normalized to loading controls, where applicable. The antibodies and their concentrations are listed as follows (antibody, dilution, catalog number, company, country): AKT (1:1000,4691, CST, USA), phospho-AKT (1:1000, 4046S, CST), phospho-p44/42 MAPK (Erk1/2) (Thr202/Tyr204) (1:1000, 4370S, CST), p44/42 MAPK (Erk1/2) (1:1000,4695S, CST), p38 MAPK (1:1000,8690S, CST), phospho-p38 MAPK (Thr180/Tyr182) (1:1000, 4511S, CST), NF-κB p65 (1:1000,8242S, CST), phospho-NF-κB p65 (Ser536) (1:1000,3033S, CST), IκBα (L35A5) Mouse mAb (1:1000, 4814S, CST), phospho-IκBα (Ser32) (1:1000,2859S, CST), PI3 kinase p85α (1:1000,11889S, CST), and phospho-PI3 kinase p85 (Tyr458)/p55 (Tyr199) (1:1000, 17366S, CST)."}, "MCAO/R mice": {"system": "MCAO/R mice", "assay": "Transmission electron microscopy of BBB", "assay_type": "in vivo, mouse", "method": "Frontal cortex samples were isolated from mice with stroke and fixed in 2% glutaraldehyde and 4% paraformaldehyde in 0.1 M sodium cacodylate (pH 7.4), treated with 10% gelatin solution in sodium cacodylate buffer, and incubated with 2% osmium tetroxide. Sections were cut using a Leica EM TP ultramicrotome (Leica Microsystems) at 40 nm and placed within grids stained with a 1:1 mix of 3% uranyl acetate and 50% acetone for 30–60 s. Grids were imaged with a JEM 1400 transmission electron microscope (JEOL) at ×1200 for low magnification and ×12,000 for high magnification (unless otherwise noted) using Gatan Microscopy Suite software (Gatan)."}, "mice [2]": {"system": "mice", "assay": "Coagulation function (PT, APTT, TT, FIB) in acute toxicity test", "assay_type": "in vivo, mouse", "settings": "VK 1.5-384 mg/kg single i.p., after 14th day", "method": "Platelet aggregation function test. Venous blood from (normal healthy rabbits) was collected in 3 mL sodium citrate anticoagulation vacuum plastic tubes. The collected venous blood was centrifuged for 10 min at 100 × g at 4℃ to obtain the upper plasma, and the platelet rich plasma (PRP) was prepared, centrifuged again for 10 min at 2000 × g at 4°C to draw the upper plasma, the platelet poor plasma (PPP) was prepared and […] to a platelet concentration of 3×10^8 cells/ml was counted. The adjusted PRP was placed into a four-channel platelet aggregation instrument (Agg RAM, Helena Laboratories, USA) to determine the 5 min maximum platelet aggregation rate with adenosine diphosphate (ADP), arachidonic acid (AA), thrombin, collagen (COL) , and platelet-activating factor (PAF) or saline as inducers (at a final […]\nAcute toxicity test. Systemic acute toxicity test by peritoneal injection was performed according to the guideline provided by Center for Drug Evaluation and Research. In addition to the normal group, male mice were randomly divided into the treated groups received a single dose of 1.5 mg/kg, 6 mg/kg, 24 mg/kg, 96 mg/kg and 384 body weight of VK. […]\nThe obtained plasma was analyzed using an automatic coagulation apparatus (CA1500). […]"}, "BV2 microglia cells": {"system": "BV2 microglia cells", "assay": "CCK-8 cytotoxicity in BV2 cells", "settings": "CCK8 assay"}, "mice [3]": {"system": "mice", "assay": "Histological analysis (H&E) of organs in acute toxicity test", "assay_type": "in vivo, mouse", "method": "Histological analysis. Organs such as heart, liver, kidney, and brain were excised and fixed in 10% formaldehyde for histological analysis. Their organs were collected and fixed with 4% PFA for 12-18 h, followed by dehydrating using an automatic dehydrator (Leica ASP-300S, Germany) and embedding in paraffin. Then, each sample was coronally cut (4 µm) using a rotatory microtome (Leica RM2245, Germany). The […]\nPrimary culture of neuron and microglia. Primary cortical neurons (1.0 × 10^5 cells per well in poly-L-lysine-coated 24-well plate) were obtained from fetal C57BL/6 mice of embryonic day 16–17.5, as previously reported1. After careful removal of meninges, cortical tissues were digested in dulbecco's modified eagle medium (DMEM, Gibco) containing 0.05% trypsin (Gibco) at 37 °C for 20 min. DMEM containing 10% FBS (Gibco) was then added to terminate the digestion. The mixture was homogenized by pipetting 120 times and was subsequently filtered with a 100-μm cell strainer (Biologix) and centrifuged at 1000 rpm for 5 min. Then, the cells were collected and resuspended by DMEM supplemented with 10% FBS (Gibco) and penicillin-streptomycin (Gibco).\nThe suspension was seeded into 24-well plates (10^5 cells/ml), and 4 h later, the medium was changed with Neurobasal medium (Gibco) containing 1% […] and 2% B27 supplement. […]"}}, "data": [{"substance": "Gly-Arg-Pro-Hyp-Gly-Phe-Ser-Pro-Phe-Arg-Ile-Asp [VK, Vespakinin-M]", "values": [{"measurement": "PI3K (p85α) and AKT phosphorylation", "setting": "[1]", "result": "stimulated MCAO-mediated PI3K (p85α) and AKT phosphorylation"}, {"measurement": "phosphorylation levels of p38 and ERK1/2 vs vehicle", "setting": "[1]", "result": "partially downregulated"}, {"measurement": "IκB and NF-κB phosphorylation levels", "setting": "[1]; VK 300 µg/kg", "result": "reduced IκB and NF-κB levels"}, {"measurement": "BBB integrity, TEM", "setting": "MCAO/R mice", "result": "could maintain BBB integrity"}, {"measurement": "four coagulation (PT, APTT, TT, FIB)", "setting": "mice [2]", "result": "No obvious change"}, {"measurement": "concentrations at which VK inhibited growth of BV2 cells", "setting": "BV2 microglia cells", "result": "73.5 to 735", "unit": "µM"}, {"measurement": "karyopyknosis and cellular swelling of hepatocytes in liver", "setting": "mice [3]; VK 96 and 384 mg/kg single i.p.", "result": "moderate"}, {"measurement": "histopathology of brain, liver and kidney vs control", "setting": "mice [3]; all treated groups after 14 days, H&E", "result": "no changes at the cellular level"}]}]}
